In patent US20200008426A1, “ACTIVE COMPOUND COMBINATIONS” (BAYER AKTIENGESELLSCHAFT, priority 2017, published 2020):
Like-named read-outs stand apart in the source and are kept apart here.

What was measured:
[1] = system: Puccinia triticina; test: In vivo preventive Puccinia triticina test (wheat); settings: Puccinia triticina, 192 h, 8 days after inoculation, read-out: Efficacy in % found; for pest or weed control at 7.5 ppm: 7.5 ppm a.i.; for pest or weed control at 15 ppm: 15 ppm a.i.; for pest or weed control at 30 ppm: 30 ppm a.i.; for pest or weed control at 250 ppm: 250 ppm a.i.
Description: After the spray coating has been dried, the plants are sprayed with a spore suspension of Puccinia triticina.
The test is evaluated 8 days after the inoculation.

[2] = system: Pyrenophora teres; test: In vitro-Test with Pyrenophora teres; format: cell-based
[3] = system: Pyricularia oryzae; format: cell-based
[4] = system: Ustilago avenae; test: In vitro-Test with Ustilago avenae; format: cell-based; settings: compound alone
[5] = In vivo ecotoxicity screening test on fish (Danio rerio); settings: Danio rerio, in vivo, other: exposure of embryos to the aqueous preparation
Procedure, shortened: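 Zebrafish mortality recorded after 96 h across five increasing concentrations between 0.01 and 1000 ppm a.i., with at most 0.5% DMSO. Mixtures tested at A:B weight ratios of 5:1 to 1:5; measured ECx compared with predicted value as the Model Deviation Ratio.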

[6] = system: Sphaerotheca fuliginea; test: In vivo preventive test on Sphaerotheca (cucumbers); settings: 7 days after inoculation
[7] = system: Venturia inaequalis; test: In vivo preventive test on Venturia (apples); settings: Table E2, 10 days after inoculation
Description: The test is evaluated 10 days after the inoculation.

[8] = system: Blumeria graminis f.sp. hordei; test: In vivo preventive Blumeria test (barley); settings: Table F2, 7 days after inoculation
[9] = system: Septoria tritici; test: In vivo preventive Septoria tritici test (wheat); settings: Zymoseptoria tritici, 504 h, 21 days after inoculation, read-out: Efficacy in % found; for pest or weed control at 125 ppm: 125 ppm a.i.; for pest or weed control at 250 ppm: 250 ppm a.i.
Description: After the spray coating has been dried, the plants are sprayed with a spore suspension of Septoria tritici.
The test is evaluated 21 days after the inoculation.

[10] = system: Leptosphaeria nodorum; test: In vitro-Test with Leptosphaeria nodorum; format: cell-based; settings: 0.04 ppm
[11] = system: Phakopsora pachyrhizi; test: In vivo preventive test on Phakopsora (soybeans); settings: Table C3, 7 days after inoculation
[12] = system: Botrytis cinerea; test: In vitro-Test with Botrytis cinerea; format: cell-based
[13] = system: Fusarium culmorum; test: In vitro-Test with Fusarium culmorum; format: cell-based
[14] = system: Rhizoctonia solani; test: In vitro-Test with Rhizoctonia solani; format: cell-based; settings: compound alone

Q: Which pest or weed control at 7.5 ppm [1] does the source give for `CC(C)c1ccc(Cl)cc1CN(C(=O)c1c(C(F)F)nn(C)c1F)C1CC1` [Example 2.038, N-(5-chloro-2-isopropylbenzyl)-N-cyclopropyl-3-(difluoromethyl)-5-fluoro-1-methyl-1H-pyrazole-4-carboxamide] here?
A: 22%

Q: And the pest or weed control at 15 ppm [1]?
A: 33%

Q: And the pest or weed control at 30 ppm [1]?
A: 44%

Q: And the pest or weed control at 7.5 ppm ([1]; Table H1)?
A: 33%

Q: And the pest or weed control at 15 ppm ([1]; Table H1)?
A: 33%

Q: And the pest or weed control at 30 ppm ([1]; Table H1)?
A: 33%

Q: What about the Efficacy % ([2]; 0.8 ppm) of the same molecule?
A: 57%

Q: What about the Efficacy % ([2]; 4 ppm) of the same molecule?
A: 82%

Q: And the Efficacy % ([2]; 20 ppm)?
A: 55%

Q: What about the Efficacy % ([3]; 0.8 ppm) of the same molecule?
A: 0%

Q: And the Efficacy % ([3]; 4 ppm)?
A: 51%

Q: What about the Efficacy % ([3]; 20 ppm) of the same molecule?
A: 75%

Q: And the Efficacy % ([4]; 0.8 ppm)?
A: 43%

Q: What about the Efficacy % ([4]; 4 ppm) of the same molecule?
A: 49%

Q: What about the Efficacy % ([4]; 20 ppm) of the same molecule?
A: 52%

Q: What about the LC50 at 96 h [5] of the same molecule?
A: 1.74 µg/mL

Q: And the “Efficacy in % found” value ([6]; Table D3, 1 ppm a.i.)?
A: 40%

Q: And the “Efficacy in % found” value ([6]; Table D3, 2 ppm a.i.)?
A: 93%

Q: What about the “Efficacy in % found” value ([6]; Table D3, 4 ppm a.i.) of the same molecule?
A: 98%

Q: What does the source list for `N#Cc1c(Cl)c(Cl)c(Cl)c(C#N)c1Cl` [Example 5.004, chlorothalonil]?
A: Efficacy in % found ([7]; 12.5 ppm a.i.): 24%; Efficacy in % found ([7]; 25 ppm a.i.): 14%; Efficacy in % found ([7]; 50 ppm a.i.): 93%; Efficacy in % found ([8]; 62.5 ppm a.i.): 22%; Efficacy in % found ([8]; 125 ppm a.i.): 44%; Efficacy in % found ([8]; 250 ppm a.i.): 44%; pest or weed control at 62.5 ppm ([1]; 62.5 ppm a.i.): 0%; pest or weed control at 250 ppm [1]: 40%; pest or weed control at 62.5 ppm ([9]; 62.5 ppm a.i.): 0%; pest or weed control at 125 ppm [9]: 0%; pest or weed control at 250 ppm [9]: 14%; Efficacy % [10]: 0%; Efficacy in % found ([11]; 25 ppm a.i.): 8%; Efficacy in % found ([11]; 50 ppm a.i.): 0%

Q: With `CC1(C)N=C(c2cnc3ccccc3c2)c2ccccc2C1(F)F` [Example 15.047, 3-(4,4-difluoro-3,3-dimethyl-3,4-dihydroisoquinolin-1-yl)quinoline] as the molecule, how does the pest or weed control at 125 ppm ([1]; 125 ppm a.i.) read?
A: 11%

Q: And the pest or weed control at 250 ppm [1]?
A: 11%

Q: And the pest or weed control at 500 ppm ([1]; 500 ppm a.i.)?
A: 22%

Q: And the pest or weed control at 125 ppm [9]?
A: 0%

Q: And the pest or weed control at 250 ppm [9]?
A: 0%

Q: What about the pest or weed control at 500 ppm ([9]; 500 ppm a.i.) of the same molecule?
A: 0%

Q: And the Efficacy % ([12]; 1 ppm)?
A: 0%

Q: And the Efficacy % ([12]; 5 ppm)?
A: 0%

Q: What about the Efficacy % ([13]; 0.04 ppm) of the same molecule?
A: 83%

Q: And the Efficacy % ([13]; 0.2 ppm)?
A: 100%

Q: And the Efficacy % ([2]; 0.04 ppm)?
A: 28%

Q: What about the Efficacy % ([2]; 0.2 ppm) of the same molecule?
A: 76%

Q: What about the Efficacy % ([2]; 1 ppm) of the same molecule?
A: 64%

Q: And the Efficacy % ([14]; 1 ppm)?
A: 0%

Q: And the Efficacy % ([14]; 5 ppm)?
A: 0%

Q: And the LC50 at 96 h [5]?
A: 7.82 µg/mL

Q: And the “Efficacy in % found” value ([6]; Table D2, 2.5 ppm a.i.)?
A: 0%

Q: What about the “Efficacy in % found” value ([6]; Table D2, 5 ppm a.i.) of the same molecule?
A: 0%

Q: What about the “Efficacy in % found” value ([6]; Table D2, 10 ppm a.i.) of the same molecule?
A: 8%
